The values below are quoted from earlier work in paper PMC5589077 (ACS chemical neuroscience, 2015).

Where two headings read alike, the source gives them in different places. No end group written: not given here.

The term Emax denotes the maximal effect, on the per cent scale that the assay sets.

The conditions of series [1]: pretreatment with nonreinforcing doses, without affecting motor function; cited from earlier work.
The test system of series [2] is rats. As to conditions: cited from earlier work.
For another series, the target named is α4β2-nAChR. To be noted: read-out: Ki at α4β2-nAChR; cited from earlier work.
Series [3] addresses α6/α3β2β3-nAChR. As to conditions: read-out: Ki at α6/α3β2β3-nAChR; cited from earlier work.
Series [4] has as its system α6/α3β2β3-nAChR. To be noted: calcium-flux, cited from earlier work.
For series [5], the system named is nonhuman primates with established LID. To be noted: without reducing antiparkinsonian benefits; cited from earlier work.
The test system of series [6] is rats. To be noted: cited from earlier work. The source holds these as a separate data set.
The subject of series [7] is rats. As to conditions: rat, in vivo; cited from earlier work.
The subject of series [8] is α6β2*-nAChR. To be noted: rat striatal synaptosomes; cited from earlier work.
For series [9], the system named is α4β2*-nAChR. To be noted: rat striatal synaptosomes, cited from earlier work.
In series [10] the target is α6β2*-nAChR. To be noted: read-out: Ki, striatal α6β2*-nAChR; monkey; cited from earlier work.
The subject of series [11] is α6β2*-nAChR. To be noted: monkey striatal synaptosomes; cited from earlier work.
Series [12] deals with α4β2*-nAChR. To be noted: monkey striatal synaptosomes, cited from earlier work.

Take `O=c1cccc2n1CC1CC2CN(CCN2CC3CC(C2)c2cccc(=O)n2C3)C1` [CC4, 1,2-bis-N-Cystinylethane]: the “effect on nicotine-induced self-administration and CPP” value in series [1] is given as “significantly reduced”.
On to `Cc1ccc[n+](CCCCCCCCCC[n+]2cccc(C)c2)c1` [compound 9, N,N′-decane-diyl-bis-3-picolinium], for which the “effect on nicotine SA” value in the series on rats [2] is “reduce nicotine SA”.
Regarding `O=C(C1CC1)N1CC2CC(C1)N2` [compound 8, 3-cyclopropylcarbonyl-3,6-dazabicyclo[3.1.1]heptane], the Ki was 3 nM on α4β2-nAChR and 21 nM at α6/α3β2β3-nAChR [3]. Moreover, the “Emax at α6/α3β2β3-nAChR” value with α6/α3β2β3-nAChR [4] is reported as 100%. For the same compound, the EC50 with α6/α3β2β3-nAChR [4] (read-out: EC50 at α6/α3β2β3-nAChR) is 80 nM. Also, the “effect on L-dopa induced dyskinesia (LID)” value in series [5] is on record as “ameliorated”. In the series on rats [6], the “effect on abnormal involuntary movements (AIMs)” value is on record as “reduced abnormal involuntary movements”.
Regarding “α-Ctx MII (GCCSNPVCHLEHSNLC; ends and bridges not checked; cysteine pairing not given here; UniProt P56636 49-64, looked up)”, in the series with rats [7], the “effect on established nicotine self-administration” value was “attenuated established nicotine self-administration”.
On to `c1cnc2cc3c(cc2n1)[C@@H]1CNC[C@H]3C1` [varenicline, 6,7,8,9,10-Tetrahydro-6,10-methano-6H-pyyrazino[2,3-h][3]benzazepine], for which the “maximal efficacy at α6β2-nAChR” value with α6β2*-nAChR [8] is 49%. Besides, the “maximal efficacy at α4β2-nAChR” value with α4β2*-nAChR [9] was […]. Also, the EC50 was […] in the series with α4β2*-nAChR [9] (read-out: EC50, α4β2*-nAChR-mediated [3H]DA release) and […] with α4β2*-nAChR [12] (read-out: EC50, α4β2*-nAChR-mediated [3H]DA-release). Moreover, the Ki at α6β2*-nAChR [10] was 0.13 nM. Besides, the “Emax, α6β2*-nAChR” value in the series with α6β2*-nAChR [11] is listed as 13%. For the same compound, the “Emax, α4β2*-nAChR” value with α4β2*-nAChR [12] was […].
